In patent publication US7855177B1, “Methods and kits for preventing hypoglycemia” (Cebix Inc., priority 2009, dated 2010):
Where two headings read alike, the source gives them in different places.

Columns and labels:
[1] = system: type 1 diabetes patients with peripheral neuropathy; test: Phase II trial: adverse events; settings: for Total treatment emergent AEs of any severity, number / Total treatment emergent AEs possibly related to study drug, number: all SOCs; for Total Adverse Events, Moderate / Total Adverse Events, Severe: ITT data set, number of treatment emergent AEs
Procedure: (§1) The safety measurements comprised collection of AEs, spontaneously reported by the patient or recorded by the investigator at each clinical visit. Review of laboratory investigations, vital signs, and physical examinations was performed at the S/B visit, visit 2, and at end of study (visit 4). ECG was performed at the S/B visit and at visit 4.
(§2) An AE was classified as “unexpected event” (i.e., if not specifically listed in the Investigator's Brochure) in terms of nature, severity, or frequency. All AEs, including intercurrent illnesses and increased severity or frequency of sign/symptoms of a concomitant disease was reported and documented as described below. AEs were documented on an “Adverse Event/Serious Adverse Event” page of the CRF and in the patient's medical records. Any AE occurring at any time after the end of the study, considered to be caused by the study medication—and therefore a possible adverse drug reaction—was reported to the sponsor.
(§3) The period of observation for AEs extended from the time the patient started on trial medication until end of the study. AEs were divided into the categories “serious” and “non-serious”. This determined the procedure used to report/document the AE.
(§4) Regardless of the classification of an AE as serious or non-serious (see above), its severity was assessed as mild, moderate, or severe, according to medical criteria alone:
(§5) Descriptive statistics were used for safety variables. For lab parameters summary statistics were presented as change from baseline and between doses. The changes from baseline were calculated and compared with normal ranges. The safety analysis set included all patients who obtained at least one dose of the investigational drug. AEs were coded according to the MedDRA dictionary. The frequencies of AEs are tabulated by body system and included/preferred term.

[2] = system: type 1 diabetes patients with peripheral neuropathy; settings: in vivo
Procedure: as §1, §2, §3, §4, §5

[3] = High-dose C-peptide, SOC Blood and lymphatic system disorder
[4] = High-dose C-peptide, SOC Eye disorder
[5] = High-dose C-peptide, SOC Gastro-intestinal Disorders
[6] = High-dose C-peptide, SOC General disorders and administration site conditions
[7] = High-dose C-peptide, SOC Infections and infestations
[8] = High-dose C-peptide, SOC Injury poisoning, procedural complications
[9] = High-dose C-peptide, SOC Investigations
[10] = High-dose C-peptide, SOC Metabolism and nutritional disorders
[11] = High-dose C-peptide, SOC Musculoskeletal and connective tissue disorder
[12] = High-dose C-peptide, SOC Nervous system disorders
[13] = High-dose C-peptide, SOC Reproductive system and breast disorders
[14] = High-dose C-peptide, SOC Respiratory, thoracic, and mediastinal disorders
[15] = High-dose C-peptide, SOC Skin and subcutaneous tissue disorders
[16] = High-dose C-peptide, SOC Surgical and Medical
[17] = High-dose C-peptide, SOC Vascular disorders
[18] = Low-dose C-peptide, SOC Cardiac disorder
[19] = Low-dose C-peptide, SOC Eye disorder
[20] = Low-dose C-peptide, SOC Gastro-intestinal Disorders
[21] = Low-dose C-peptide, SOC Immune system disorders
[22] = Low-dose C-peptide, SOC Infections and infestations
[23] = Low-dose C-peptide, SOC Injury poisoning, procedural complications
[24] = Low-dose C-peptide, SOC Investigations
[25] = Low-dose C-peptide, SOC Metabolism and nutritional disorders
[26] = Low-dose C-peptide, SOC Musculoskeletal and connective tissue disorder
[27] = Low-dose C-peptide, SOC Nervous system disorders
[28] = Low-dose C-peptide, SOC Psychiatric disorders
[29] = Low-dose C-peptide, SOC Skin and subcutaneous tissue disorders
[30] = Low-dose C-peptide, SOC Surgical and Medical

## CC(C)C[C@H](NC(=O)[C@H](C)NC(=O)[C@H](CC(C)C)NC(=O)[C@@H]1CCCN1C(=O)[C@H](CCC(N)=O)NC(=O)[C@H](CC(C)C)NC(=O)[C@H](CO)NC(=O)CNC(=O)[C@H](C)NC(=O)CNC(=O)[C@@H]1CCCN1C(=O)CNC(=O)CNC(=O)CNC(=O)[C@H](CC(C)C)NC(=O)[C@H](CCC(=O)O)NC(=O)[C@@H](NC(=O)[C@H](CCC(N)=O)NC(=O)CNC(=O)[C@@H](NC(=O)[C@H](CCC(N)=O)NC(=O)[C@H](CC(C)C)NC(=O)[C@H](CC(=O)O)NC(=O)[C@H](CCC(=O)O)NC(=O)[C@H](C)NC(=O)[C@@H](N)CCC(=O)O)C(C)C)C(C)C)C(=O)N[C@@H](CCC(=O)O)C(=O)NCC(=O)N[C@@H](CO)C(=O)N[C@@H](CC(C)C)C(=O)N[C@@H](CCC(N)=O)C(=O)O [C-peptide]
[1]; 500-1,500 nmoL/24 h
  tolerability: well tolerated
[1]; [3]
  Anemia, number of AEs: 1
  Hemorrhage, number of AEs: 1
[1]; [4]
  Macular edema, number of AEs: 1
  Vitreous hemorrhage, number of AEs: 1
[1]; [5]
  Abdominal pain, number of AEs: 3
  Aptyalism, number of AEs: 1
  Diarrhea, number of AEs: 1
  Gastritis, number of AEs: 1
  Nausea, number of AEs: 4
  Tooth ache, number of AEs: 3
[1]; [6]
  Chest pain, number of AEs: 2
  Fatigue, number of AEs: 2
  Feeling abnormal, number of AEs: 3
  Injection site burning, number of AEs: 1 (1)
  Injection site burning, number of AEs possibly related to study drug: 1 (1)
[1]; [7]
  Gastroenteritis, number of AEs: 7
  Otitis, number of AEs: 2
  Pharyngitis, number of AEs: 2
  Sepsis, number of AEs: 1
  Sinusitis, number of AEs: 2
  Skin infection, number of AEs: 1
  Tonsilitis, number of AEs: 2
  Tooth infection, number of AEs: 2
  Upper respiratory tract infection, number of AEs: 1
  Urinary tract infection, number of AEs: 1
[1]; [8]
  Blister, number of AEs: 2
  Dizziness, number of AEs: 1
  Eye injury, number of AEs: 1
  Food poisoning, number of AEs: 1
  Joint sprain ankle, number of AEs: 1
  Knee injury, number of AEs: 1
  Rib fracture/injury, number of AEs: 2
  Scar, number of AEs: 1
  Tooth injury, number of AEs: 1
[1]; [9]
  Cardiac murmur, number of AEs: 1
  Hematuria, number of AEs: 1
  Hepatic enzyme increase, number of AEs: 2
  Hypercalcemia, number of AEs: 1
  Leucopenia, number of AEs: 1
  Lymph node enlargement, number of AEs: 1
[1]; [10]
  Hyperglycemia, number of AEs: 1
  Hypoglycemia, number of AEs: 5
  Hypoglycemia, number of AEs possibly related to study drug: 1
  Hypoglycemic coma, number of AEs: 2
  Vitamin B12 deficiency, number of AEs: 1
[1]; [11]
  Arthralgia, number of AEs: 3
  Arthritis, number of AEs: 1
  Arthropathy, number of AEs: 1
  Back pain, number of AEs: 2
  Epicondylitis, number of AEs: 1
  Muscle spasm, number of AEs: 1
  Muscular atrophy, number of AEs: 1
  Myalgia, number of AEs: 1
  Pain in extremity, number of AEs: 4
  Pain in shoulder, number of AEs: 1
  Tendinitis, number of AEs: 1
  Tendosynovitis, number of AEs: 1
  Torticollis, number of AEs: 1
[1]; [12]
  Burning sensation, number of AEs: 1
  Headache, number of AEs: 17
  Hyperaesthesia, number of AEs: 1 (1)
  Hyperaesthesia, number of AEs possibly related to study drug: 1 (1)
  Migraine, number of AEs: 1
  Paraesthesia, number of AEs: 2 (2)
  Paraesthesia, number of AEs possibly related to study drug: 2 (2)
  Restless legs syndrome, number of AEs: 1
  Sciatica, number of AEs: 1
  Sensory loss, number of AEs: 1
  Vertigo, number of AEs: 1
[1]; High-dose C-peptide, SOC Pregnancy, puerperium and perinatal conditions
  Pregnancy, number of AEs: 2
[1]; [13]
  Menopausal disorder, number of AEs: 1
  Menstration irregular, number of AEs: 1
[1]; [14]
  Cough, number of AEs: 1
  Epistaxis, number of AEs: 1
[1]; [15]
  Skin induration, number of AEs: 1
  Skin infection, number of AEs: 2
  Sweating increased, number of AEs: 1
[1]; [16]
  Limb operation, number of AEs: 1
  Tooth extraction, number of AEs: 1
[1]; [17]
  Arterial disorder, number of AEs: 1
  Hypertension, number of AEs: 1
  Hypotension, number of AEs: 1
[1]; High-dose C-peptide
  Total treatment emergent AEs of any severity, number: 156
  Total treatment emergent AEs possibly related to study drug, number: 5
[1]; Low-dose C-peptide, SOC Blood and lymphatic system disorder
  Anemia, number of AEs: 1
[1]; [18]
  Cardiac arrhythmia, number of AEs: 1
  ST elevation (ECG), number of AEs: 1
  Tachycardia (stress, number of AEs): 1
[1]; [19]
  Dacryocanaliculitis, number of AEs: 1
  Vision decreased, number of AEs: 1
[1]; [20]
  Celiac disease, number of AEs: 1
  Diarrhea, number of AEs: 2
  Flatulence, number of AEs: 1
  Nausea, number of AEs: 1
  Reflux gastritis, number of AEs: 2
  Tooth ache, number of AEs: 2
[1]; Low-dose C-peptide, SOC General disorders and administration site conditions
  Pyrexia, number of AEs: 3
[1]; [21]
  Allergic urticaria, number of AEs: 1
  Dermatitis allergic, number of AEs: 1
  Rheumarthritis, number of AEs: 1
  Season allergy, number of AEs: 1
[1]; [22]
  Borrelia infection, number of AEs: 1
  Bronchitis, number of AEs: 1
  Candidiasis, number of AEs: 2
  Gastroenteritis, number of AEs: 2
  Herpes simplex, number of AEs: 1
  Herpeszoster, number of AEs: 1
  Influenza, number of AEs: 1
  Nasopharyngitis, number of AEs: 31
  Otitis, number of AEs: 1
  Pharyngitis, number of AEs: 1
  Sinusitis, number of AEs: 4
  Skin infection, number of AEs: 5
  Tonsilitis, number of AEs: 1
  Upper respiratory tract infection, number of AEs: 3
  Urinary tract infection, number of AEs: 3
[1]; [23]
  Joint sprain ankle, number of AEs: 1
  Rib fracture/injury, number of AEs: 1
  Skin injury, number of AEs: 2
[1]; [24]
  Elevated serum, number of AEs: 1
  Hepatic enzyme increase, number of AEs: 2
  Hepatic enzyme increase, number of AEs possibly related to study drug: 1
  Hyperkalaemia, number of AEs: 1
  Weight increased, number of AEs: 1
[1]; [25]
  Hyperglycemia, number of AEs: 1 (1)
  Hyperglycemia, number of AEs possibly related to study drug: 1 (1)
  Hyperlipidemia, number of AEs: 1
  Hypoglycemia, number of AEs: 2
  Hypoglycemia, number of AEs possibly related to study drug: 1
  Hypoglycemic coma, number of AEs: 2
  Insulin sensitivity, number of AEs: 1 (1)
  Insulin sensitivity, number of AEs possibly related to study drug: 1 (1)
[1]; [26]
  Arthralgia, number of AEs: 3
  Arthritis, number of AEs: 1
  Arthropathy, number of AEs: 2
  Epicondylitis, number of AEs: 1
  Exostosis, number of AEs: 2
  Muscle cramp, number of AEs: 1
  Musculoskeletal chest, number of AEs: 1
  Myalgia, number of AEs: 3
  Pain in extremity, number of AEs: 3
  Pain in extremity, number of AEs possibly related to study drug: 1
  Pain in neck, number of AEs: 1
  Synovial disorder, number of AEs: 1
  Tendinous contracture, number of AEs: 1
[1]; [27]
  Carpal tunnel syndrome, number of AEs: 1
  Dizziness, number of AEs: 2
  Headache, number of AEs: 35
  Hyperthermeasthesia, number of AEs: 2 (2)
  Hyperthermeasthesia, number of AEs possibly related to study drug: 2 (2)
  Hypoaesthesia, number of AEs: 2
  Multiple sclerosis, number of AEs: 1
  Paraesthesia, number of AEs: 2
  Paraesthesia, number of AEs possibly related to study drug: 1
[1]; [28]
  Depression, number of AEs: 1
  Panic disorder, number of AEs: 1
  Stress disorder, number of AEs: 1
[1]; Low-dose C-peptide, SOC Respiratory, thoracic, and mediastinal disorders
  Asthma, number of AEs: 1
[1]; [29]
  Dry skin, number of AEs: 1
  Fibroma, number of AEs: 1
  Skin induration, number of AEs: 2
[1]; [30]
  Eye operation, number of AEs: 1
  Limb operation, number of AEs: 1
[1]; Low-dose C-peptide, SOC Vascular disorders
  Hypertension, number of AEs: 1
[1]; Low-dose C-peptide
  Total treatment emergent AEs of any severity, number: 173
  Total treatment emergent AEs possibly related to study drug, number: 8
[1]; S.C. injection, 500-1,500 nmoL/24 h
  local reactions: No local reactions
[1]; high-dose C-peptide (1,500 nmoL/24 h)
  SAEs: Two
[1]; high-dose C-peptide group
  AEs possibly/probably related to the study drug: 5
  patients without reported AEs: 6 patients
  Total Adverse Events, Moderate: Moderate = 43
  Total Adverse Events, Severe: Severe = 9
[1]; high-dose C-peptide group, 44 out of 52 patients
  patients with AEs: 85%
[1]; high-dose C-peptide, investigators' assessment
  relationship of SAEs to the trial medication: unlikely/not related
[1]; low-dose C-peptide group
  patients without reported AEs: 8 patients
  Total Adverse Events, Moderate: Moderate = 51
  Total Adverse Events, Severe: Severe = 1
[1]; low-dose C-peptide group, 48 out of 56 patients
  patients with AEs: 86%
[2]
  AEs possibly/probably related to the study drug: 8
  Acute HIV infection, number of AEs: 1
  Infections and infestations: Acute HIV infection, treatment emergent AE intensity (number of incidences): M (1)
  Infections and infestations: Herpes zoster, treatment emergent AE intensity (number of incidences): M (1)
  Nasopharyngitis, number of AEs: 23
